In patent US11273142B2, “Treatment for tumors driven by metabolic dysfunction” (SynDevRx, Inc., priority 2016, dated 2022):
Like-named read-outs stand apart in the source and are kept apart here.

Experiments:
B16F10 melanoma [1] = assay: B16F10 melanoma tumor growth in obese (DIO) and lean mice; assay type: in vivo, C57BL/6 male mice; settings: 2 mg/kg SC Q2D
Description: The study would compare weight changes in both obese and lean animal groups; measure biologic changes in hematology parameters; and compare conjugate molecules of the present disclosure against related small molecules for efficacy.
(§1) C57BL/6 male mice were ad libitum fed TD.06414 a high fat diet (HFD) composed of 60% Kcal from fat (DIO) for 12-14 weeks, until average body weight of the obese mice was >40 g. Age-matched C57Bl/6 male mice were maintained on a normal rodent diet (10% fat, low-fat diet, LFD) for 12-14 weeks. The study was initiated by injecting 2×10^5 B16F10 melanoma cells into the flank of both lean and obese animals.
(§2) The mice were treated with 5% mannitol/water (vehicle control), Compound 1 or Compound 4 once tumors had reached >100 mm^3. Treatment was via subcutaneous, intra-scapular injection at 5 ml/kg every four days (compound 1) or every 2 days (compound 4) over a 17 day period at the doses and on the schedule shown in Table 2.

[2] = Body weight of B16F10 tumor-bearing obese and lean mice; assay type: in vivo, C57BL/6 male mice; settings: 2 mg/kg SC Q2D
Method: as §1, §2

B16F10 melanoma [3] = assay: Metastatic lung lesions in B16F10 melanoma/DIO mice; assay type: in vivo, C57BL/6 male mice; settings: Obese Mice; 2 mg/kg
Method: as §1, §2

[4] = Adipose tissue mass in mice bearing B16F10 melanoma; assay type: in vivo, C57BL/6 male mice; settings: 2 mg/kg
Method: as §1
Treatment was via subcutaneous, intra-scapular injection at 5 ml/kg every four days (compound 1) or every 2 days (compound 4) over a 17 day period at the doses and on the schedule shown in Table 2.

[5] = every fourth day schedule; limited by confusion and insomnia; cited from earlier work
[6] = cited from earlier work
[7] = SD rats; 5 mg/kg/day (Kim et al.); cited from earlier work
NOAEL in dog = settings: in vivo, after 0.5 mg/kg COMPOUND 1
NOAEL in rat = settings: in vivo, after 3 mg/kg COMPOUND 1
CYP3A 4 & 5 = assay: CYP3A4/5 substrate status; assay type: in vitro ADME
[8] = in combination with paclitaxel; dosed three times per week; cited from earlier work

## COC1C(OC(=O)/C=C/c2ccc(OCCN(C)C)cc2)CC[C@]2(CO2)C1[C@@]1(C)O[C@@H]1CC=C(C)C (stereo partly drawn) [Compound 4]
B16F10 melanoma [1]; lean mice
  effect on tumor growth: no effect on tumor growth
B16F10 melanoma [1]; obese mice
  inhibition of growth of tumors: 28%
[2]; lean mice
  effect on body weight: no effect on body weight
[2]; obese mice
  change in body weight: −7.9%
B16F10 melanoma [3]
  number of metastatic lung lesions, mean +/- SEM: 2.4+/−0.8 lesions/mouse
[4]; Lean Mice
  Tissue Weight, Epididymal Fat: 0.134 g
  Tissue Weight, Inguinal Fat: 0.208 g
  Tissue Weight, Retroperitoneal Fat: 0.029 g
[4]; Obese Mice
  Tissue Weight, Epididymal Fat: 0.424 g
  Tissue Weight, Inguinal Fat: 0.416 g
  Tissue Weight, Retroperitoneal Fat: 0.142 g
[5]
  MTD: 15 mg/m2/day
[6]; C57BL/6J mice, 5 mg/kg/day (Kim et al.)
  body weight effect: weight loss
[6]; DIO mice, dosed at 1 mg/kg (Hughes et al.)
  body weight effect: efficacious in eliciting weight loss
[7]
  body weight effect: weight loss

## COC1C(OC(=O)N[C@H]2CC[C@H](N)CC2)CC[C@]2(CO2)C1[C@@]1(C)O[C@@H]1CC=C(C)C (stereo partly drawn) [Compound 5]
NOAEL in dog
  AUC: 0.0207 µg·h/mL
  Cmax: 0.4 ng/mL
NOAEL in rat
  AUC: 0.0233 µg·h/mL
  Cmax: 1.5 ng/mL
CYP3A 4 & 5
  CYP3A 4 & 5 substrate: substrate

## CO[C@@H]1[C@H](OC(=O)NC(=O)CCl)CC[C@]2(CO2)[C@H]1[C@@]1(C)O[C@@H]1CC=C(C)C [TNP-470, chloroacetylcarbamoylfumagillol]
[6]; mice, 15 or 20 mg/kg every other day (Brakenhielm)
  obesity prevention: prevention of obesity
[6]; ob/ob mice, daily doses 2.5 mg/kg to 10 mg/kg (Rupnick et al.)
  body weight effect: weight loss
[8]
  MTD: 60 mg/m2

## CO[C@@H]1[C@H](OC(=O)/C=C/C=C/C=C/C=C/C(=O)O)CC[C@]2(CO2)[C@H]1[C@@]1(C)O[C@@H]1CC=C(C)C [fumagillin]
[6]; C57BL/6 mice, oral 1 mg/kg daily (Lijnen et al.)
  body weight effect: weight loss
